Consider five molecules from patent US9126973B2, “Multiheteroaryl compounds as inhibitors of H-PGDS and their use for treating prostaglandin D2 mediated diseases” (Cayman Chemical Company, Incorporated, priority 2008, dated 2015).

Broadly, the IC50 is the concentration that gives 50% inhibition. The low end stands for higher potency, the high end for lower potency. Broadly, the melting point is the temperature, or range, at which the solid turns liquid.

For data set [1] the following is noted: background statement with literature references; cited from earlier work.
Data set [2] has as its target T1, H-PGDS (Homo sapiens (Human), UniProt O60760). As to the kind of experiment: H-PGDS Inhibitor Enzyme Immunoassay (EIA). The class given is biochemical. To be noted: 25 ng H-PGDS, 40 μM PGH2, 1 mM GSH; PGD2 quantified by EIA. As to the method: H-PGDS Inhibitor Enzyme Immunoassay
The assay detects and measures PGD2 generated by H-PGDS. The prostanoid product is quantified via enzyme immunoassay (EIA) using a specific PGD2 antibody.
The assay is carried out by the following steps: • 1. Inhibitor screening is performed in 100 mM Tris-HCl, pH 8.0 containing 1 mM GSH, 1 mM MgCl2, 4% inhibitor/DMSO, 40 μM PGH2 and 25 ng of PGDS in a total volume of 125 μL. • 2. A reaction mixture containing 100 mM Tris-HCl, pH 8.0, 1 mM GSH, 1 mM MgCl2, 25 ng H-PGDS and 4% inhibitor or DMSO (uninhibited reaction) is preincubated at 25° C. for 10 minutes. • 3. Reactions are initiated using 5 μL of PGH2 and quenched every 15 seconds for one minute. Reactions are quenched by taking 10 μL of reaction mixture and adding to 490 μL of 100 mM phosphate buffer containing 0.1% BSA, 400 mM NaCl, 1 mM EDTA, 20 mM FeCl2, 10% 1N HCl, and 0.01% azide to prevent the non-enzymatic formation of PGD2 from PGH2. The FeCl2 serves the purpose of reducing PGH2 to 12-HHT. (Quench buffer is kept on ice at all times). • 4. Quenched samples (5 μL) are further diluted 100 fold in 495 μL of 100 mM phosphate buffer containing 0.1% BSA, 400 mM NaCl, 1 mM EDTA, and 0.01% azide for the PGD2 EIA assay. (Dilution buffers are kept on ice at all times).
The final 5000 fold diluted samples are analyzed following the protocol outlined in Cayman Chemical's commercially available PGD2 EIA kit (Cat. #512021). 50 μL of diluted sample is analyzed at least in duplicate in the EIA assay and the amount of PGD2 formed is quantified using a standard curve.

For data set [3], the target named is T1, H-PGDS. In words: H-PGDS Fluorescence Polarization Binding Assay (FPBA). To be noted: H-PGDS-MBP fusion enzyme, fluorescent probe, reduced glutathione 5 mM, 60-90 minutes at room temperature, 96-well format. The procedure:
H-PGDS Fluorescence Polarization Binding Assay This assay essentially is available from Cayman Chemical Company as Catalog item #600007. The test data reported for the aforementioned Examples (H-PGDS FPBA IC50) were generated using a 96-well, instead of the 384-well, format. […] Assays were performed in 96-well microtiter plates in 100 μL of total sample volume. Excitation and emission wavelengths appropriate for the employed detection analyte were used. […] Twelve clean microfuge tubes were labeled A1 through A12. […] Dimethyl sulfoxide (50 μL) was added to each of tubes A1 through A11. The HQL-79 control solution was serially diluted by removing 50 μL from tube A12 and placing it in tube A11 with subsequent thorough mixing of the contents of tube A11. Next, 50 μL was removed from tube A11 and was placed into tube A10 with subsequent thorough mixing of the contents of tube A10. This process was repeated for tubes A9 through A2. […] A test compound may be dissolved in DMSO, ethanol, or methanol at several concentrations when the titration endpoint is unknown. […] Assay cocktail (95 μL) was added to each plate well. DMSO (5 μL) from microfuge tube A1 was added to each plate well A1 and B1. Positive control solution (5 μL) from microfuge tube A2 was added to each plate well A2 and B2. Positive control solution (5 μL) from microfuge tube A3 was added to each plate well A3 and B3. This procedure was continued until all the positive control standard dilutions were aliquoted. Test compound solutions (5 μL) were added to the wells. […] The IC50 for a particular test compound was obtained by performing a full concentration titration versus a full concentration titration of positive control. Comparison of a single concentration of a test compound to the maximum binding well provided an assessment of the relative affinity of the test compound for H-PGDS-MBP. The plate was covered and incubated for 60-90 minutes at room temperature. The FP signal is stable for at least two hours. […] The measurements were taken in the fluorescent polarization mode with the z-height set to the middle of the well and the G-factor set to 1.13 on a Tecan Safire 2 reader.
(In general: In fluorescence polarisation assays a small probe gives low polarisation when free and higher when bound to something large.)

T1 sequence (O60760 whole entry): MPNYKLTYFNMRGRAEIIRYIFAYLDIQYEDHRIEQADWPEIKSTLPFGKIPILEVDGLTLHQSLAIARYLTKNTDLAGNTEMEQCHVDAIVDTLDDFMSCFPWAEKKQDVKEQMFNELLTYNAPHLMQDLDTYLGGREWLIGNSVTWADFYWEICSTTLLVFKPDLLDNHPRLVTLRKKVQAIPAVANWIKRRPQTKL

In the case of `c1ccc(C(OC2CCN(CCCc3nnn[nH]3)CC2)c2ccccc2)cc1` [HQL-79], the “antiallergic and antiasthmatic activity in vivo” value in data set [1] was “antiallergic and antiasthmatic activity in vivo”.

For `C(=C\c1ncc(-c2cnc(-c3ccccc3)nc2)[nH]1)/c1cccnc1` [Example 15, (E)-2-phenyl-5-(2-(2-(pyridin-3-yl)vinyl)-1H-imidazol-5-yl)pyrimidine], the melting point is 258 °C. The molecule also registered a 50% inhibitory concentration (IC50) in data set [2] of 23 nM. In data set [3], this molecule registered an IC50 of 150 nM.

Molecule `c1ccc(-c2ncc(-c3cnc(-c4cccnc4)[nH]3)cn2)cc1` [Example 10, 2-phenyl-5-(2-(pyridin-3-yl)-1H-imidazol-5-yl)pyrimidine] yielded a melting point of 308 °C. In data set [2], this molecule yielded an IC50 of 21 nM. For the same molecule, the half-maximal inhibitory concentration (IC50) in data set [3] worked out at 79 nM.

Molecule `c1ccc(-c2ncc(-c3cnc(-c4ccncc4)[nH]3)cn2)cc1` [Example 13, 2-phenyl-5-(2-(pyridin-4-yl)-1H-imidazol-5-yl)pyrimidine] gave a melting point of 300 °C. In addition, in data set [2], the IC50 was determined as 75 nM. Besides, the IC50 in data set [3] amounted to 125 nM.

Consider `c1ccc(-c2ncc(-c3cnc(-c4ccccn4)[nH]3)cn2)cc1` [Example 9, 2-phenyl-5-(2-(pyridin-2-yl)-1H-imidazol-5-yl)pyrimidine], for which the melting point was 262 °C. Besides, it took 53 nM to reach half-maximal inhibition in data set [2] (IC50). Further, in data set [3], the 50% inhibitory concentration (IC50) amounted to 125 nM.
